According to patent EP4603105A1, “PHARMACEUTICAL COMPOSITION CONTAINING CYCLIC COMPOUND HAVING SELECTIVE KRAS INHIBITORY EFFECT AGAINST HRAS AND NRAS” (CHUGAI SEIYAKU KABUSHIKI KAISHA, priority 2022, dated 2024):

Experiments:
HRAS wild-type protein = HRAS wild-type protein (Homo sapiens, UniProt P01112); test: Binding to HRAS by surface plasmon resonance (SPR), KD and KD ratio to KRAS; details: ratio of KD for HRAS wild-type protein to KD for KRAS
Method in brief: (§1)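 GDP-bound biotin-Avi RAS captured at ~100–300 RU, 30°C, pH 7.4 HBS containing 10 µM GDP, 10 mM MgCl2, 1 mM DTT, 0.01% Tween 20 and 4% DMSO. KD by 1:1 fitting.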

[1] = tested on: human lung cancer strain NCI-H441; assay type: cell-based
Method in brief: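 Readout: […] after the ATP-based reagent. Compound: serial dilutions in dimethyl sulfoxide.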

[2] = molecular target: GDP-bound NRAS wild-type protein (Homo sapiens, UniProt P01111); test: Binding to NRAS by surface plasmon resonance (SPR), KD and KD ratio to KRAS; details: ratio of KD for GDP-bound NRAS wild-type protein to KD for KRAS
Chain of GDP-bound NRAS wild-type protein (P01111 whole entry): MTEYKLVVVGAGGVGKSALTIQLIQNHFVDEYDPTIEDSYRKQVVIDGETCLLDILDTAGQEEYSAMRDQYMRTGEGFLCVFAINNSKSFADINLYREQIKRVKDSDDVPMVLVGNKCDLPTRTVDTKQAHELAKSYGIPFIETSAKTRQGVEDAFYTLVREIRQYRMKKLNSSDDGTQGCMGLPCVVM
Method in brief: as §1

Chain of HRAS wild-type protein (P01112 whole entry): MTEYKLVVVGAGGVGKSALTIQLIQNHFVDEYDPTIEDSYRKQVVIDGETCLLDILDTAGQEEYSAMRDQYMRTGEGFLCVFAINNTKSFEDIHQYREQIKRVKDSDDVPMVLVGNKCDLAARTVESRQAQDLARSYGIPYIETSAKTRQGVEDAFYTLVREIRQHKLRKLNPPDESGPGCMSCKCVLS

Compound | HRAS /KRAS (HRAS wild-type protein) | IC50 [1] | NRAS /KRAS [2]
CCO[C@@H]1C[C@H]2C(=O)NC3(CCC3)C(=O)N(C)[C@@H](C(C)(C)C)C(=O)N(C)[C@H](C(=O)N3CCOCC3)CC(=O)N(C)[C@@H](CC(C)C)C(=O)N[C@@H]([C@@H](C)CC)C(=O)N(C)CC(=O)N(C)[C@H]3CCCCCN(C3=O)[C@@H](Cc3ccc(C(F)(F)F)cc3)C(=O)N(C)CC(=O)N[C@@H](CCc3cc(F)c(C(F)(F)F)c(F)c3)C(=O)N2C1 [PP0823] | B (a compound having 3 or more and less than 10 is denoted as B) | 130 nM | A (a compound having 10 or more and less than 20 is denoted as A)
CCO[C@@H]1C[C@H]2C(=O)NC3(CCC3)C(=O)N(C)[C@@H](C3CCCC3)C(=O)N(C)[C@H](C(=O)N(C)C)CC(=O)N(C)[C@@H](CC)C(=O)N[C@@H]([C@@H](C)CC)C(=O)N(C)CC(=O)N(C)[C@H]3C/C=C\CCN(C3=O)[C@@H](Cc3ccc(C(F)(F)F)cc3)C(=O)N(C)CC(=O)N[C@@H](CCc3cc(F)c(C(F)(F)F)c(F)c3)C(=O)N2C1 [PP0824] | A (a compound having 10 or more and less than 20 is denoted as A) | 23.6 nM | A (a compound having 10 or more and less than 20 is denoted as A)
CCO[C@@H]1C[C@H]2C(=O)NC3(CCC3)C(=O)N(C)[C@@H](C3CCCC3)C(=O)N(C)[C@H](C(=O)N3CCOCC3)CC(=O)N(C)[C@@H](CC(C)C)C(=O)N[C@@H]([C@@H](C)CC)C(=O)N(C)CC(=O)N(C)[C@H]3C/C=C\CCN(C3=O)[C@@H](Cc3ccc(C(F)(F)F)cc3)C(=O)N(C)CC(=O)N[C@@H](CCc3ccc(C(F)(F)F)c(Cl)c3)C(=O)N2C1 [PP0825] | A (a compound having 10 or more and less than 20 is denoted as A) | 26.5 nM | A (a compound having 10 or more and less than 20 is denoted as A)
CCO[C@@H]1C[C@H]2C(=O)NC3(CCC3)C(=O)N(C)[C@@H](C3CCCC3)C(=O)N(C)[C@H](C(=O)N(C)C)CC(=O)N(C)[C@@H](CC)C(=O)N[C@@H]([C@@H](C)CC)C(=O)N(C)CC(=O)N(C)[C@H]3CC=C(C)CN(C3=O)[C@@H](Cc3ccc(C(F)(F)F)cc3)C(=O)N(C)CC(=O)N[C@@H](CCc3cc(F)c(C(F)(F)F)c(F)c3)C(=O)N2C1 [PP0827] | C (A compound having a KD ratio of 0.1 or more and less than 3 is denoted as C) | 15.7 nM | C (A compound having a KD ratio of 0.1 or more and less than 3 is denoted as C)
CCO[C@@H]1C[C@H]2C(=O)NC3(CC(F)(F)C3)C(=O)N(C)[C@@H](C3CCCC3)C(=O)N(C)[C@H](C(=O)N3CCOCC3)CC(=O)N(C)[C@@H](CC(C)C)C(=O)N[C@@H]([C@@H](C)CC)C(=O)N(C)CC(=O)N(C)[C@H]3CC=C(C)CN(C3=O)[C@@H](Cc3ccc(C(F)(F)F)cc3)C(=O)N(C)CC(=O)N[C@@H](CCc3cc(F)c(C(F)(F)F)c(F)c3)C(=O)N2C1 [PP0828] | C (A compound having a KD ratio of 0.1 or more and less than 3 is denoted as C) | 7.3 nM | C (A compound having a KD ratio of 0.1 or more and less than 3 is denoted as C)
CCO[C@@H]1C[C@H]2C(=O)NC3(CCC3)C(=O)N(C)[C@@H](C3CCCC3)C(=O)N(C)[C@H](C(=O)N(C)C)CC(=O)N(C)[C@@H](CC)C(=O)N[C@@H]([C@@H](C)CC)C(=O)N(C)CC(=O)N(C)[C@H]3C[C@H]4C[C@H]4CN(C3=O)[C@@H](Cc3ccc(C(F)(F)F)cc3)C(=O)N(C)CC(=O)N[C@@H](CCc3cc(F)c(C(F)(F)F)c(F)c3)C(=O)N2C1 [PP0830] | C (A compound having a KD ratio of 0.1 or more and less than 3 is denoted as C) | 3.4 nM | C (A compound having a KD ratio of 0.1 or more and less than 3 is denoted as C)
CCO[C@@H]1C[C@H]2C(=O)NC3(CC(F)(F)C3)C(=O)N(C)[C@@H](C3CCCC3)C(=O)N(C)[C@H](C(=O)N3CCOCC3)CC(=O)N(C)[C@@H](CC(C)C)C(=O)N[C@@H]([C@@H](C)CC)C(=O)N(C)CC(=O)N(C)[C@H]3C[C@H]4C[C@H]4CN(C3=O)[C@@H](Cc3ccc(C(F)(F)F)cc3)C(=O)N(C)CC(=O)N[C@@H](CCc3cc(F)c(C(F)(F)F)c(F)c3)C(=O)N2C1 [PP0831] | C (A compound having a KD ratio of 0.1 or more and less than 3 is denoted as C) | 3.7 nM | C (A compound having a KD ratio of 0.1 or more and less than 3 is denoted as C)
CCO[C@@H]1C[C@H]2C(=O)NC3(CCC3)C(=O)N(C)[C@@H](C3CCCC3)C(=O)N(C)[C@H](C(=O)N3CCOCC3)CC(=O)N(C)[C@@H](CC(C)C)C(=O)N[C@@H]([C@@H](C)CC)C(=O)N(C)CC(=O)N(C)[C@H]3CC=CCN(C3=O)[C@@H](Cc3ccc(C(F)(F)F)cc3)C(=O)N(C)CC(=O)N[C@@H](CCc3cc(F)c(C(F)(F)F)c(F)c3)C(=O)N2C1 [PP0832] | C (A compound having a KD ratio of 0.1 or more and less than 3 is denoted as C) | 21.5 nM | C (A compound having a KD ratio of 0.1 or more and less than 3 is denoted as C)
CC[C@H](C)[C@@H]1NC(=O)[C@H](COC)N(C)C(=O)C[C@@H](C(=O)N2CCOCC2)N(C)C(=O)[C@H](C2CCCC2)N(C)C(=O)C2(CCC2)NC(=O)[C@@H]2C[C@H](OC)CN2C(=O)[C@H](CCc2cc(F)c(C(F)(F)F)c(F)c2)NC(=O)CN(C)C(=O)[C@H](Cc2ccc(C(F)(F)F)cc2)N2CCCCC[C@@H](C2=O)N(C)C(=O)CN(C)C1=O [PP0836] | B (a compound having 3 or more and less than 10 is denoted as B) | 360 nM | B (a compound having 3 or more and less than 10 is denoted as B)
CC[C@H](C)[C@@H]1NC(=O)[C@H](COC)N(C)C(=O)C[C@@H](C(=O)N2CCOCC2)N(C)C(=O)[C@H](C2CCCC2)N(C)C(=O)C2(CCC2)NC(=O)[C@@H]2C[C@@H](OC)CN2C(=O)[C@H](CCc2cc(F)c(C(F)(F)F)c(F)c2)NC(=O)CN(C)C(=O)[C@H](Cc2ccc(C(F)(F)F)cc2)N2CCCCC[C@@H](C2=O)N(C)C(=O)CN(C)C1=O [PP0837] | B (a compound having 3 or more and less than 10 is denoted as B) | 63.4 nM | B (a compound having 3 or more and less than 10 is denoted as B)
CCCO[C@@H]1C[C@H]2C(=O)NC3(CCC3)C(=O)N(C)[C@@H](C3CCCC3)C(=O)N(C)[C@H](C(=O)N3CCOCC3)CC(=O)N(C)[C@@H](COC)C(=O)N[C@@H]([C@@H](C)CC)C(=O)N(C)CC(=O)N(C)[C@H]3CCCCCN(C3=O)[C@@H](Cc3ccc(C(F)(F)F)cc3)C(=O)N(C)CC(=O)N[C@@H](CCc3cc(F)c(C(F)(F)F)c(F)c3)C(=O)N2C1 [PP0838] | B (a compound having 3 or more and less than 10 is denoted as B) | 50.4 nM | B (a compound having 3 or more and less than 10 is denoted as B)
CC[C@H](C)[C@@H]1NC(=O)[C@H](COC)N(C)C(=O)C[C@@H](C(=O)N2CCOCC2)N(C)C(=O)[C@H](C2CCCC2)N(C)C(=O)C2(CCC2)NC(=O)[C@@H]2C[C@@H](OCC(C)C)CN2C(=O)[C@H](CCc2cc(F)c(C(F)(F)F)c(F)c2)NC(=O)CN(C)C(=O)[C@H](Cc2ccc(C(F)(F)F)cc2)N2CCCCC[C@@H](C2=O)N(C)C(=O)CN(C)C1=O [PP0839] | B (a compound having 3 or more and less than 10 is denoted as B) | 122 nM | B (a compound having 3 or more and less than 10 is denoted as B)
CC[C@H](C)[C@@H]1NC(=O)[C@H](COC)N(C)C(=O)C[C@@H](C(=O)N2CCOCC2)N(C)C(=O)[C@H](C2CCCC2)N(C)C(=O)C2(CCC2)NC(=O)[C@@H]2CCN2C(=O)[C@H](CCc2cc(F)c(C(F)(F)F)c(F)c2)NC(=O)CN(C)C(=O)[C@H](Cc2ccc(C(F)(F)F)cc2)N2CCCCC[C@@H](C2=O)N(C)C(=O)CN(C)C1=O [PP0840] | B (a compound having 3 or more and less than 10 is denoted as B) | 572 nM | B (a compound having 3 or more and less than 10 is denoted as B)
CCO[C@@H]1C[C@H]2C(=O)NC3(CCCC3)C(=O)N(C)[C@@H](C3CCCC3)C(=O)N(C)[C@H](C(=O)N3CCOCC3)CC(=O)N(C)[C@@H](COC)C(=O)N[C@@H]([C@@H](C)CC)C(=O)N(C)CC(=O)N(C)[C@H]3CCCCCN(C3=O)[C@@H](Cc3ccc(C(F)(F)F)cc3)C(=O)N(C)CC(=O)N[C@@H](CCc3cc(F)c(C(F)(F)F)c(F)c3)C(=O)N2C1 [PP0841] | B (a compound having 3 or more and less than 10 is denoted as B) | 112 nM | B (a compound having 3 or more and less than 10 is denoted as B)
CCO[C@@H]1C[C@H]2C(=O)NC3(CC=CC3)C(=O)N(C)[C@@H](C3CCCC3)C(=O)N(C)[C@H](C(=O)N3CCOCC3)CC(=O)N(C)[C@@H](COC)C(=O)N[C@@H]([C@@H](C)CC)C(=O)N(C)CC(=O)N(C)[C@H]3CCCCCN(C3=O)[C@@H](Cc3ccc(C(F)(F)F)cc3)C(=O)N(C)CC(=O)N[C@@H](CCc3cc(F)c(C(F)(F)F)c(F)c3)C(=O)N2C1 [PP0842] | B (a compound having 3 or more and less than 10 is denoted as B) | 174 nM | B (a compound having 3 or more and less than 10 is denoted as B)
